Assay results reported in patent publication US7345070B2, “Peroxisome proliferator activated receptor agonists” (Eli Lilly and Company, priority 2000, dated 2008).

How the values were obtained:
[1] = test system: HuapoAI transgenic mice; experiment: Evaluation of triglyceride and cholesterol level in HuapoAI transgenic mice; assay type: in vivo; conditions: Mus musculus, 168 h, human apoAI transgenic mice, 30 mg/kg oral gavage daily for 7 days; for change in vivo at 30 mg/kg: FPLC area under the curve, over mice receiving vehicle, read-out: % HDLc Increase; for inhibition in vivo at 30 mg/kg: serum 3 h after dosing, read-out: Reduction in Triglyceride Serum Level
Experimental: After an acclimation period of 2 weeks, animals were individually identified by ear notches, weighed, and assigned to groups based on body weight. Beginning the following morning, mice were dosed daily by oral gavage for 7 days using a 20 gauge, 1½″ curved disposable feeding needle (Popper & Sons). […] Prior to termination on day 7, mice were weighed and dosed. Three hours after dosing, animals were anesthetized by inhalation of isoflurane (2-4%; Abbott Laboratories, Chicago, Ill.) and blood obtained via cardiac puncture (0.7-1.0 ml). Whole blood was transferred to serum separator tubes (Vacutainer SST), chilled on ice, and permitted to clot. Serum was obtained after centrifugation at 4° C. and frozen until analysis for triglycerides, total cholesterol, compound levels, and serum lipoprotein profile by fast protein liquid chromatography (FPLC) coupled to an inline detection system. After sacrifice by cervical dislocation, the liver, heart and epididymal fat pads were excised and weighed.
The absorbance of the dye produced is linearly related to the analyte in the sample. The assays were further modified in our laboratory for use in a 96 well format. […] An additional aliquot of sample, pipetted to a third well and diluted in 200 μl water, provided a blank for each specimen. […] Sample absorbances were compared to a standard curve (100-800, 10-500, and 100-400 mg/dl for glucose, triglycerides and total cholesterol, respectively). […] All samples from an experiment were assayed at the same time to minimize inter-assay variability.
Serum lipoproteins were separated and cholesterol quantitated with an in-line detection system. Sample was applied to a Superose® 6 HR 10/30 size exclusion column (Amersham Pharmacia Biotech) and eluted with phosphate buffered saline-EDTA at 0.5 ml/min. […] The change in voltage corresponding to change in cholesterol concentration was plotted vs time and the area under the curve corresponding to the elution of VLDL, LDL and HDL was calculated using Perkin Elmer Turbochrome software.

[2] = biological target: T1, huPPARγ (Homo sapiens, UniProt P37231); experiment: Cotransfection assay in CV-1 cells, huPPARγ; assay type: cell-based; design: Appropriate PPARs and RXRα were constitutively expressed using plasmids containing the CMV promoter; expressed in transfected cells; host or cells: CV-1 cells; conditions: AOX PPRE luciferase reporter, relative to PPARγ agonist reference molecule, read-out: huPPARγ CTF Efficacy
T1 sequence (P37231 1-505): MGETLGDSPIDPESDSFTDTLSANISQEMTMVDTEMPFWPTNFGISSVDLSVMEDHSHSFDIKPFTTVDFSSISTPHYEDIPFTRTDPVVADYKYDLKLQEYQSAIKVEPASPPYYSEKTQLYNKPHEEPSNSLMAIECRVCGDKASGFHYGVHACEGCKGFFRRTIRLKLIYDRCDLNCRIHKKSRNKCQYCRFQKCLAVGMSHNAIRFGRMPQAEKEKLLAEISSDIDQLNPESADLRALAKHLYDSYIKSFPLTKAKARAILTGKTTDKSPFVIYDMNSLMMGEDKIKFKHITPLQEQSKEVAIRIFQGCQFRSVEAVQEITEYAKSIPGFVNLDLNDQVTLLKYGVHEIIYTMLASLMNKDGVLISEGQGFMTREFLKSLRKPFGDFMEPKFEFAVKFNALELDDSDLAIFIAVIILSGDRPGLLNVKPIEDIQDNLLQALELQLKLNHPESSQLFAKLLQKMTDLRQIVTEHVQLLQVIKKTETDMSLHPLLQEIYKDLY
T1 sequence (P19793 1-462 partner): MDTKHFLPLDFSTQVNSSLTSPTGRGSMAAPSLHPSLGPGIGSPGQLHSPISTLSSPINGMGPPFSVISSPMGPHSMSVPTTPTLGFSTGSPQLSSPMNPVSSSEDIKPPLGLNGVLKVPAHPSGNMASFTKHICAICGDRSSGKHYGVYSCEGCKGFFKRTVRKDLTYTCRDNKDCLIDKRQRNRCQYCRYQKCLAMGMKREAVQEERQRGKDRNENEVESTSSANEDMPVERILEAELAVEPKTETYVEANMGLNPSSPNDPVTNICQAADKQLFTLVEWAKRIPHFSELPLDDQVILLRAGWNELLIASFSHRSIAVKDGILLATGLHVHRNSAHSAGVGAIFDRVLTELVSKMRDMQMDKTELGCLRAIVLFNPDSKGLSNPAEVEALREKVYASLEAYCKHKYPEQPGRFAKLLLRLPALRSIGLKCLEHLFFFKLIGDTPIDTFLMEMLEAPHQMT
Experimental: (§1) DNA-dependent binding (ABCD binding) was carried out using SPA technology with PPAR receptors. Tritium-labeled PPARα and PPARγ agonists were used as radioligands for generating displacement curves and IC50 values with compounds of the invention. Cotransfection assays were carried out in CV-1 cells. The reporter plasmid contained an acylCoA oxidase (AOX) PPRE and TK promoter upstream of the luciferase reporter cDNA. Appropriate PPARs and RXRα were constitutively expressed using plasmids containing the CMV promoter. […] In order to eliminate such interference, a GAL4 chimeric system was used in which the DNA binding domain of the transfected PPAR was replaced by that of GAL4, and the GAL4 response element was utilized in place of the AOX PPRE. Cotransfection efficacy was determined relative to PPARα agonist and PPARγ agonist reference molecules. Efficacies were determined by computer fit to a concentration-response curve, or in some cases at a single high concentration of agonist (10 μM). For binding or cotransfection studies with receptors other than PPARs, similar assays were carried out using appropriate ligands, receptors, reporter constructs, etc., for that particular receptor.
(§2) These studies were carried out to evaluate the ability of compounds of the invention to bind to and/or activate various nuclear transcription factors, particularly huPPARα (“hu” indicates “human”) and huPPARγ. These studies provide in vitro data concerning efficacy and selectivity of compounds of the invention. Furthermore, binding and cotransfection data for compounds of the invention were compared with corresponding data for marketed compounds that act on either huPPARα or huPPARγ.

[3] = biological target: T1, huPPARγ; experiment: DNA-dependent binding (ABCD binding) using SPA technology, huPPARγ; conditions: SPA displacement of tritium-labeled PPARγ agonist radioligand
Experimental: as §1, §2

Compound	change in vivo at 30 mg/kg [1] [%]	inhibition in vivo at 30 mg/kg [1] [%]	Emax [2] [%]	IC50 [3] [µM]
Cc1oc(C2CCCCC2)nc1CCOc1ccc(CC(C)(Oc2cccc(F)c2)C(=O)O)cc1 (stereo not shown) [Example 23, 2-(3-Fluoro-phenoxy)-2-methyl-3-{4-[2-(5-methyl-2-cyclohexyl-oxazol-4-yl)-ethoxy]-phenyl}-propionic acid]	54	52.5	17	0.081
Cc1oc(-c2ccccc2)nc1CCOc1ccc(CC(C)(Oc2ccc(Cl)cc2)C(=O)O)cc1 (stereo not shown) [Example 29, 2-(4-Chloro-phenoxy)-2-methyl-3-{4-[2-(5-methyl-2-phenyl-oxazol-4-yl)-ethoxy]-phenyl}-propionic acid]	78		82	0.048
Cc1oc(-c2cccs2)nc1CCOc1ccc(CC(C)(Oc2cccc(C(C)(C)C)c2)C(=O)O)cc1 (stereo not shown) [Example 25, 2-(3-tert-Butyl-phenoxy)-2-methyl-3-{4-[2-(5-methyl-2-thiophen-2-yl-oxazol-4-yl)-ethoxy]-phenyl}-propionic acid]	8	35.5	106	0.07
Cc1oc(-c2ccccc2)nc1CCOc1ccc(CC(C)(Oc2ccc3c(c2)OCO3)C(=O)O)cc1 (stereo not shown) [Example 78, 2-(Benzo[1,3]dioxol-5-yloxy)-2-methyl-3-{4-[2-(5-methyl-2-phenyl-oxazol-4-yl)-ethoxy]-phenyl}-propionic acid]	95	64.8	17	0.089
Cc1ccc(OC(C)(Cc2ccc(OCCc3nc(-c4cccs4)oc3C)cc2)C(=O)O)cc1 (stereo not shown) [Example 40, 2-Methyl-3-{4-[2-(5-methyl-2-thiophen-2-yl-oxazol-4-yl)-ethoxy]-phenyl}-2-p-tolyloxy-propionic acid]	131	77.6	110	0.01
Cc1oc(C2CCCCC2)nc1CCOc1ccc(CC(C)(Oc2ccc(OC(F)(F)F)cc2)C(=O)O)cc1 (stereo not shown) [Example 44, 3-{4-[2-(2-Cyclohexyl-5-methyl-oxazol-4-yl)-ethoxy]-phenyl}-2-methyl-2-(4-trifluoromethoxy-phenoxy)-propionic acid]	151		73	0.159
Cc1oc(CCc2ccccc2)nc1CCOc1ccc(C[C@](C)(Oc2ccccc2)C(=O)O)cc1 [Example 86, (S)-2-Methyl-3-{4-[2-(5-methyl-2-phenethyl-oxazol-4-yl)-ethoxy]-phenyl}-2-phenoxy-propionic acid]	36	30.1	7	0.072
COc1cccc(OC(C)(Cc2ccc(OCCc3nc(C4CCCCC4)oc3C)cc2)C(=O)O)c1 (stereo not shown) [Example 76, 3-{4-[2-(2-Cyclohexyl-5-methyl-oxazol-4-yl)-ethoxy]-phenyl}-2-(3-methoxy-phenoxy)-2-methyl-propionic acid]	26	27.1	24	0.083
Cc1oc(-c2cccs2)nc1CCOc1ccc(CC(C)(Oc2ccc(C(C)(C)C)cc2)C(=O)O)cc1 (stereo not shown) [Example 17, 2-Methyl-3-{4-[2-(5-methyl-2-thiophen-2-yl-oxazol-4-yl)-ethoxy]-phenyl}-2-(4-tert-butylphenoxy)-propionic acid]	119	78.7	105	0.067
COc1ccc(OC(C)(Cc2ccc(OCCc3nc(-c4cccs4)oc3C)cc2)C(=O)O)cc1 (stereo not shown) [Example 19, 2-Methyl-3-{4-[2-(5-methyl-2-thiophen-2-yl-oxazol-4-yl)-ethoxy]-phenyl}-2-(4-methoxyphenoxy)-propionic acid]	89	40	23	0.08
Cc1oc(C2CCCCC2)nc1CCOc1ccc(CC(C)(Oc2ccc(C(F)(F)F)cc2)C(=O)O)cc1 (stereo not shown) [Example 52, 3-{4-[2-(2-Cyclohexyl-5-methyl-oxazol-4-yl)-ethoxy]-phenyl}-2-methyl-2-(4-trifluoromethyl-phenoxy)-propionic acid]	185	75.9	61	0.076
Cc1oc(C2CCCCC2)nc1CCOc1ccc(CC(C)(Oc2ccc(C3CCCCC3)cc2)C(=O)O)cc1 (stereo not shown) [Example 34, 3-{4-[2-(2-Cyclohexyl-5-methyl-oxazol-4-yl)-ethoxy]-phenyl}-2-(4-cyclohexyl-phenoxy)-2-methyl-propionic acid]	95	57.1	76	0.077
Cc1oc(C2CCCCC2)nc1CCOc1ccc(CC(C)(Oc2ccc(F)c(F)c2)C(=O)O)cc1 (stereo not shown) [Example 58, 3-{4-[2-(2-Cyclohexyl-5-methyl-oxazol-4-yl)-ethoxy]-phenyl}-2-(3,4-difluoro-phenoxy)-2-methyl-propionic acid]	74	26.5	41	0.066
Cc1ccc(OC(C)(Cc2ccc(OCCc3nc(C4CCCCC4)oc3C)cc2)C(=O)O)cc1 (stereo not shown) [Example 41, 3-{4-[2-(2-Cyclohexyl-5-methyl-oxazol-4-yl)-ethoxy]-phenyl}-2-methyl-2-p-tolyloxy-propionic acid]	96	57.8	11	0.109
Cc1oc(-c2cccs2)nc1CCOc1ccc(CC(C)(Oc2ccc(F)cc2)C(=O)O)cc1 (stereo not shown) [Example 64, 2-(4-Fluoro-phenoxy)-2-methyl-3-{4-[2-(5-methyl-2-thiophen-2-yl-oxazol-4-yl)-ethoxy]-phenyl}-propionic acid]	66	43	11	0.112
